This assay deals with aerobic bacteria. Put plainly: Dissolved oxygen measurement in an illuminated microalgae-bacteria culture sample with successive additions of substrate and inhibitor (Example 2, FIG. 4). The format is cell-based. The conditions noted are these: culture of Nannochloropsis oculata sp. 0.3 g/L and aerobic bacteria 0.05 g/L. The protocol: A sample of a culture comprising microalgae of the type Nannochloropsis oculata sp. in a concentration of 0.3 g/L. and aerobic bacteria in a concentration of 0.05 g/L was transferred from a bioreactor to a chamber having a volume of 300 mL and comprising a magnetic stirrer and a source for emitting light. The source for emitting light comprised light-emitting diode strings located around the chamber.
During the whole experiment, the chamber was provided with light. In other words, several illumination steps were carried out successively, in order to conduct, during each illumination step, the measurement of the dissolved oxygen present in the sample. This measurement was carried out with a Luminescent Dissolved Oxygen (LDO) sensor (HACH) inserted in the chamber. After each illumination step, the sample was returned to the bioreactor and replaced with a new sample.
More particularly, after point 11, a total amount of 70 mg/L of CuSO4 was added to the sample.

For the molecule `CCO` [ethanol], the “effect on the activity of bacteria (dissolved oxygen concentration, oxygen consumption by respiration)” value (after each addition (1 to 11) of substrate) is “increases the activity of bacteria”.

Consider `O=S(=O)([O-])[O-].[Cu+2]` [CuSO4], for which the “effect on the activity of bacteria (oxygen production rate of the sample)” value (successive additions 1 to 11, total 70 mg/L CuSO4 after point 11) is “increasing inhibitory effect”.

For the origin of these results see patent US20220220527A1, “METHOD FOR MEASURING THE ACTIVITY OF A CULTURE OF MICROALGAE” (TotalEnergies SE, priority 2019, published 2022).
